Laboratory results reported in article PMC7902330, “Pharmacokinetic study of traditional Japanese Kampo medicine shimotsuto used to treat gynecological diseases in rats” (Journal of Natural Medicines, 2021).
Read-outs that look alike come from different tables or passages of the source.

Assays:
[1] = Nontargeted LC–HRMS detection of ingredients in rat plasma after oral administration of each constituent crude drug; conditions: n = 2
Method: The rats were fasted for 16 h and then orally administered Angelicae Acutilobae Radix, Paeoniae Radix, Rehmanniae Radix, or Cnidii Rhizoma extract powder suspended in distilled water at a dosage of 1 g/10 mL/kg. […] The two sampling points (1 and 10 h) were set to extensively explore both fast- and slow-absorbing ingredients. The blood samples were centrifuged at 1700×g for 15 min at 4 °C to obtain plasma, and the plasma samples were stored at less than − 75 °C until LC–HRMS analysis.
Before LC–HRMS analysis, the plasma samples were deproteinized using methanol as follows: 100 µL of plasma sample was mixed with 700 µL of methanol and then vortexed for 2 min. After centrifugation at 7000×g for 5 min at 4 °C, the supernatant was collected and then dried using a centrifugal evaporator, dissolved the dried residue in 80 μL of the initial mobile phase of LC, and recentrifuged at 7000×g for 5 min at 4 °C. Finally, a 5 μL aliquot of the supernatant was injected into the LC–HRMS system and analyzed in both positive and negative ion modes.
We interfaced the Acquity Ultra-Performance Liquid Chromatography System (Waters) to a Xevo G2-XS quadrupole time-of-flight MS system (Waters) equipped with an electrospray ionization probe in sensitivity mode. All ions within m/z = 50–1000 were acquired by the MS^E method (data-independent acquisition). […] We created two acquisition functions with different collision energies: a low-energy function with 6 eV collision energy and a high-energy function with 15–40 eV collision energy. The mass spectrometer resolution was set at more than 20,000.

human TRPV1 = molecular target: T1, human TRPV1 (Homo sapiens, UniProt Q8NER1); experiment: Ca2+ influx assay for TRP channel agonistic activity in T-REx-293 cells; type: cell-based; conditions: 10 µmol/L test ingredient, positive control 2 µmol/L capsaicin, read-out: % Activation compared to positive control, TRPV1
T1 construct: The full length of each of human transient receptor potential ankyrin 1 (TRPA1), transient receptor potential cation channel subfamily V member 1 (TRPV1); expressed in transfected cells
T1 sequence (Q8NER1 whole entry): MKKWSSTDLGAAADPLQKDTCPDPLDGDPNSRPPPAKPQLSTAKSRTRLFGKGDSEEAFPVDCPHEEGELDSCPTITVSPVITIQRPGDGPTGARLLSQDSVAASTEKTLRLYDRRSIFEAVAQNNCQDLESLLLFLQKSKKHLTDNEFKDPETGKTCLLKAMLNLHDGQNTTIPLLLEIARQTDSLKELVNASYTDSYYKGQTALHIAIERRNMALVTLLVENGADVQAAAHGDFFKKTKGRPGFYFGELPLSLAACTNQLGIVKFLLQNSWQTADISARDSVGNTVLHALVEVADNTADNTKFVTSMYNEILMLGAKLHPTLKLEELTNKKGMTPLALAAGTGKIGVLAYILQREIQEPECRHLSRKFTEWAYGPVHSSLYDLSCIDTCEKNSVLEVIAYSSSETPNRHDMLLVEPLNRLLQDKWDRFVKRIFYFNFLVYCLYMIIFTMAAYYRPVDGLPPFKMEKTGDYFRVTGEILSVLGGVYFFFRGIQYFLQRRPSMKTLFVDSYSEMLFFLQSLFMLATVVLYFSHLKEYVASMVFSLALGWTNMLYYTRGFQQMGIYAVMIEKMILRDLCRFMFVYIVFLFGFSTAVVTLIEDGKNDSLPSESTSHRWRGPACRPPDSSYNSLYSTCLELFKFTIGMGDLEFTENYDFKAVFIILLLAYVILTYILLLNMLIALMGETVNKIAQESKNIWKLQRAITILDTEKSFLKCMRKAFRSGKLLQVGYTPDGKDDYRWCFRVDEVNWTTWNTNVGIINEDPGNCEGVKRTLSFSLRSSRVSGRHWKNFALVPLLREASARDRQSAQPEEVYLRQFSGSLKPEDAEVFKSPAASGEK
Text: (§1) The full length of each of human transient receptor potential ankyrin 1 (TRPA1), transient receptor potential cation channel subfamily V member 1 (TRPV1), transient receptor potential cation channel subfamily V member 4 (TRPV4), and transient receptor potential cation channel subfamily M member 8 (TRPM8) coding region was introduced into a pcDNA4/TO vector (Thermo Fisher Scientific, Waltham, MA, USA) and transfected into T-REx-293 cells (Thermo Fisher Scientific) to obtain stable cell lines expressing human TRPA1, TRPV1, TRPV4, and TRPM8. Next, the cells were cultured in Dulbecco’s Modified Eagle Medium containing 10% fetal bovine serum (FBS), 4 mM L-glutamine, and penicillin/streptomycin.
(§2) First, cells were suspended in culture medium with 1 µg/mL of tetracycline and seeded on a poly-D-lysine-coated 96-well plate at a density of 2.5 × 10^4 cells/well overnight. Next, the cells were used for Ca^2+ influx assay, as described previously with minor modifications, using a FLIPR Calcium 5 Assay Kit (Molecular Devices, San Jose, CA, USA). Briefly, cells were incubated in 80 µL of a Ca^2+-chelating dye dissolved in assay buffer at pH 7.4 (Hanks’ Balanced Salt Solution containing 20 mmol/L of 4-(2-hydroxyethyl)-1-piperazineethanesulfonic acid [HEPES]) for 30 min at room temperature. Next, the plates were assayed in a FlexStation 3 microplate reader (Molecular Devices). The fluorescence intensity was traced entirely for 80 s, and the fluorescence baseline was measured 20 s before application of 20 µL of the test compound (final concentration = 10 µmol/L). The response was expressed as percentage activation as follows:
(§3) Relative fluorescence units (RFU) (% activation) = ([RFUmax − RFUbaseline]/RFUbaseline) × 100
(§4) The activity of each test compound against TRPA1, TRPV1, TRPV4, and TRPM8 was represented as the relative enhancement of the Ca^2+ influx of each positive control as follows: 20 µmol/L of allyl isothiocyanate (TRPA1 agonist), 2 µmol/L of capsaicin (TRPV1 agonist), 4 µmol/L of GSK1016790A (TRPV4 agonist), and 20 µmol/L of icilin (TRPM8 agonist). The dose–response curve was fitted to the sigmoidal dose–response equation (Top: maximum response of each compound), and EC50 was calculated using GraphPad prism 7 software (GraphPad, San Diego, CA, USA).
(§5) Calcium ion influx into TRPA1-, TRPV1-, TRPV4-, or TRPM8-expressing T-REx-293 cells was measured to evaluate the agonistic effect of shimotsuto ingredients on TRP channels. The action of 10 µmol/L of each test ingredient was represented as the relative enhancement of the Ca^2+ influx of each positive control, indicated as follows: 20 µmol/L each of allyl isothiocyanate (TRPA1 agonist), 2 µmol/L capsaicin (TRPV1 agonist), 4 µmol/L GSK1016790A (TRPV4 agonist), and 20 µmol/L icilin (TRPM8 agonist). Dose–response tests of shimotsuto ingredients against TRPA1 were performed to calculate EC50.

human TRPA1 = molecular target: T2, human TRPA1 (Homo sapiens, UniProt O75762); experiment: as above; type: cell-based; conditions: for activation at 10 µM: T-REx-293, 10 µmol/L test ingredient, positive control 20 µmol/L allyl isothiocyanate, read-out: % Activation compared to positive control, TRPA1; for Activation of TRPA1 (in words): TRP stable expression cell lines
T2 construct: The full length of each of human transient receptor potential ankyrin 1 (TRPA1); expressed in transfected cells
T2 sequence (O75762 whole entry): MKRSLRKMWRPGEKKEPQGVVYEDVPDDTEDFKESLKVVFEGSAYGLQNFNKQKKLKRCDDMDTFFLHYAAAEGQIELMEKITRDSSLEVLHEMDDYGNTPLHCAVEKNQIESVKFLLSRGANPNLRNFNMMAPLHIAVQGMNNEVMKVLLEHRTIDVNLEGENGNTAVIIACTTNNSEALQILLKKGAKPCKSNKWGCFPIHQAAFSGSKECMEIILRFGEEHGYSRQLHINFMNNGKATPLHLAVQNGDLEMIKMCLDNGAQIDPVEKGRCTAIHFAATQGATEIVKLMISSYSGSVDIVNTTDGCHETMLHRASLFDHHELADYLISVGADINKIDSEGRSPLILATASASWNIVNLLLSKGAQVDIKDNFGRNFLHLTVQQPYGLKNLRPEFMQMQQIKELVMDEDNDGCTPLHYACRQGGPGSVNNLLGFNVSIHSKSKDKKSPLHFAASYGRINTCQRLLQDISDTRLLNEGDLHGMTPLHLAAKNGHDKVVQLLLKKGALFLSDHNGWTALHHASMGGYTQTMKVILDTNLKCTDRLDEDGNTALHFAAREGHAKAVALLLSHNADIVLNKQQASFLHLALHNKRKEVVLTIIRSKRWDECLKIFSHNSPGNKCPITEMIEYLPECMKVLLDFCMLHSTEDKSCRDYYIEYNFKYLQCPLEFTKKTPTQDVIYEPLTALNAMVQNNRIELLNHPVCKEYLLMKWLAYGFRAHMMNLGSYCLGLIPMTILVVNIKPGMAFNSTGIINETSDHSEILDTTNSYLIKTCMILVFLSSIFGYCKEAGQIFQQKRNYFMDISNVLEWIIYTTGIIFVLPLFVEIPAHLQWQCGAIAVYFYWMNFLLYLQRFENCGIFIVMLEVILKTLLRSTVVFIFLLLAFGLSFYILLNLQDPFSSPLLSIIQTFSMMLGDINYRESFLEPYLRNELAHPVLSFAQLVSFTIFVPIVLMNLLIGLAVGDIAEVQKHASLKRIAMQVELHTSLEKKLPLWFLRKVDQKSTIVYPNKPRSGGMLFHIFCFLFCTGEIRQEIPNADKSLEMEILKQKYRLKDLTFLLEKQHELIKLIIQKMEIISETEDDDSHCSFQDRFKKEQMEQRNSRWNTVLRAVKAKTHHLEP
Text: as §1, §2, §3, §4, §5

human TRPV4 = molecular target: T3, human TRPV4 (Homo sapiens, UniProt Q9HBA0); experiment: as above; type: cell-based; conditions: 10 µmol/L test ingredient, positive control 4 µmol/L GSK1016790A, read-out: % Activation compared to positive control, TRPV4
T3 construct: The full length of each of human transient receptor potential ankyrin 1 (TRPA1); expressed in transfected cells
T3 sequence (Q9HBA0 whole entry): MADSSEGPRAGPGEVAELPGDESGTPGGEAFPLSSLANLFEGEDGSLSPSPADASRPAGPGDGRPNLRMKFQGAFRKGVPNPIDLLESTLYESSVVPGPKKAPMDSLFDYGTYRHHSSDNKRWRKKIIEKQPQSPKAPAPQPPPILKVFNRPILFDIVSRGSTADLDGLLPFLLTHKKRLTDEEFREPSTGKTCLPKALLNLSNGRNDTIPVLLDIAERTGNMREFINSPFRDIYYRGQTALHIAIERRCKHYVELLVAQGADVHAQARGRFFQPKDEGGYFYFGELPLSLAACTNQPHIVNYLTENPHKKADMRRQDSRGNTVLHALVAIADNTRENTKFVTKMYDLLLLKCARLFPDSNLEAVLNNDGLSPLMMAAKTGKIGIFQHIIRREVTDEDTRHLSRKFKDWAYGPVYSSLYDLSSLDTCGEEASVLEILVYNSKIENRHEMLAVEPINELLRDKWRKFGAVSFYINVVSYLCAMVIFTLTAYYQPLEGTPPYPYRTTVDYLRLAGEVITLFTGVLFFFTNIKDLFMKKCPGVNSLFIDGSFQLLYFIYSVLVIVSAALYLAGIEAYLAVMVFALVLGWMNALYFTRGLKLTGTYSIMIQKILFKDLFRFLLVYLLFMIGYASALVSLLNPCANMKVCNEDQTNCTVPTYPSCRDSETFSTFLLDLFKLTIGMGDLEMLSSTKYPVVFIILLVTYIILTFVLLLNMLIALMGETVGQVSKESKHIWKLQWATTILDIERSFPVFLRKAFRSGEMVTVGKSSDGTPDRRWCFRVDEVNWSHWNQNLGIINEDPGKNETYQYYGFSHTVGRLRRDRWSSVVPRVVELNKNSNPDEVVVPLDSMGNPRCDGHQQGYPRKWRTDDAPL
Text: as §1, §2, §3, §4, §5

human TRPM8 = molecular target: T4, human TRPM8 (Homo sapiens, UniProt Q7Z2W7); experiment: as above; type: cell-based; conditions: 10 µmol/L test ingredient, positive control 20 µmol/L icilin, read-out: % Activation compared to positive control, TRPM8
T4 construct: The full length of each of human transient receptor potential ankyrin 1 (TRPA1); expressed in transfected cells
T4 sequence (Q7Z2W7 whole entry): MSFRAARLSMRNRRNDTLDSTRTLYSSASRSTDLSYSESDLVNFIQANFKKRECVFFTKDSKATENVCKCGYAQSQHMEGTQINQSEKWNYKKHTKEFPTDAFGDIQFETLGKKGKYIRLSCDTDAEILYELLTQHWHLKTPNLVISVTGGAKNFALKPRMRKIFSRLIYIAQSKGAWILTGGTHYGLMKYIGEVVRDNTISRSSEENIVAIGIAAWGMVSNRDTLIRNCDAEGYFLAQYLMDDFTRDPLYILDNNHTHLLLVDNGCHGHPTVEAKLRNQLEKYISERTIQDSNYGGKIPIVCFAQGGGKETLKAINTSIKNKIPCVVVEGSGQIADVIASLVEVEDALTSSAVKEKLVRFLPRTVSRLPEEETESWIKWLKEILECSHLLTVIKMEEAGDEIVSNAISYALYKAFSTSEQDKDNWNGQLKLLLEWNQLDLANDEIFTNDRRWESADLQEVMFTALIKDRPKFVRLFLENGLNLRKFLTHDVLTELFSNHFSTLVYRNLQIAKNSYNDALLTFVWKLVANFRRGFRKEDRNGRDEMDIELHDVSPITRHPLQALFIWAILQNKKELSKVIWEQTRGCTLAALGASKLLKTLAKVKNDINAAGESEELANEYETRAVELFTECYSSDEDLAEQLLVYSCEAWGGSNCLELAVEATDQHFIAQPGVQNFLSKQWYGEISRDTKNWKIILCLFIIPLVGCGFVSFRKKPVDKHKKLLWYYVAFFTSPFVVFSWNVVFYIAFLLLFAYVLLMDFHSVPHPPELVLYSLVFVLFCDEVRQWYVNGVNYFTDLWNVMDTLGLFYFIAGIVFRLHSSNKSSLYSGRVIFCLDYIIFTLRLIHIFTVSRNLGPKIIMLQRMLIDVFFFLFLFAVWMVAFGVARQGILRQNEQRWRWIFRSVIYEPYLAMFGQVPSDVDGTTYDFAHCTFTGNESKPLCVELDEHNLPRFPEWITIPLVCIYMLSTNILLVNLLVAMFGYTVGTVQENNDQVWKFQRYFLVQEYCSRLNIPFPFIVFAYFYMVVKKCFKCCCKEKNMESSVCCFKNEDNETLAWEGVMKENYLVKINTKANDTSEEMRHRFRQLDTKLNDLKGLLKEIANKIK
Text: as §1, §2, §3, §4, §5

[2] = Pharmacokinetics of ingredients in rat plasma after oral administration of shimotsuto (targeted LC–MS/MS); type: in vivo; conditions: in vivo
Text: The plasma levels of nine ingredients were quantified using quantitative (targeted) analysis. Among them, seven ingredients (catalpol, paeoniflorin, albiflorin, senkyunolide A, butylphthalide, ferulic acid, and ligustilide) are candidate active ingredients in shimotsuto (Table 1). Two ingredients (bergapten and 8-debenzoylpaeoniflorin) are shimotsuto ingredients which were detected and identified in shimotsuto-treated rat plasma using nontargeted LC–HRMS analysis. The nine ingredients were quantified by collecting plasma samples at 0–24 h after shimotsuto administration, pretreating with the following procedures, and then analyzing by targeted LC–MS/MS using selected reaction-monitoring mode. The LC–MS/MS system was composed of a triple quadruple MS (TripleQuad6500; SCIEX, Framingham, MA, USA) and an Agilent 1290 Infinity LC system (Agilent Technologies, Santa Clara, CA, USA). For highly sensitive and selective quantitative (targeted) analysis of each compound, we preliminarily examined optimal pretreatment and analytical LC–MS/MS methods (e.g., MS parameters and LC conditions).
For quantification of catalpol, paeoniflorin, albiflorin, ferulic acid, and senkyunolide A in plasma, 100 µL of plasma sample was mixed with 20 µL of methanol (or working solution) and 20 µL of internal standard (niflumic acid or swertiamarin) and pretreated by deproteinization using 500 µL of acetonitrile. […] Finally, the dried residue was dissolved in 60 µL of the specific HPLC mobile phase used for analysis and then a 10 μL aliquot was injected into the LC–MS/MS system.
For quantification of ligustilide and butylphthalide in plasma, 200 µL of plasma sample was mixed with 40 µL of methanol (or working solution) and 40 µL of internal standard (imperatorin) and centrifuged at 15000×g for 10 min at 4 °C, the whole volume of supernatant was collected and subsequently pretreated by solid-phase extraction using Oasis HLB Extraction Cartridge (Waters, Milford, MA, USA). The acetonitrile elutes were collected and then dried under a steam of nitrogen gas. Finally, the dried residue was dissolved in 70 µL of the specific HPLC mobile phase and injected 20 µL into the LC–MS/MS system.
For quantification of bergapten in plasma, 100 µL of plasma sample was mixed with 20 µL of methanol (or working solution) and 20 µL of internal standard (niflumic acid) and pretreated by solid-phase extraction using an Oasis HLB 96-well µElution plate. Next, the mixied elutes of acetonitrile and isopropyl alcohol (1:1, v/v) were collected and then dried under a steam of nitrogen gas. Finally, the dried residue was dissolved in 60 µL of the specific HPLC mobile phase and injected 10 µL into the LC–MS/MS system.
For quantification of 8-debenzoylpaeoniflorin in plasma, 100 µL of plasma sample was mixed with 20 µL of methanol (or working solution) and 20 µL of internal standard (niflumic acid) and pretreated by liquid–liquid extraction using 500 µL of ethyl acetate. […] The dried residue was dissolved in 60 µL of the specific HPLC mobile phase and injected 10 µL into the LC–MS/MS system.
In addition, pharmacokinetic parameters of the shimotsuto ingredients detected in the plasma, such as the maximum concentration (Cmax) and area under the plasma level–time curve (AUC0−last), were calculated by noncompartmental moment analysis using Phoenix WinNonlin software (Certara L.P., St. Louis, MO, USA).

[3] = cited from earlier work
[4] = oral Angelicae Acutilobae Radix 1 g/kg

Row | Structure (SMILES) | activation at 10 µM (human TRPV1) | activation at 10 µM (human TRPA1) | Activation of TRPA1 (in words) (human TRPA1) | activation at 10 µM (human TRPV4) | activation at 10 µM (human TRPM8) | AUC(0-t) ([2]; rat, po, 1 g/kg) | Cmax ([2]; rat, po, 1 g/kg) | Tmax ([2]; rat, po, 1 g/kg) | Plasma collected 1 h postadministration (detection) ([1]; oral Cnidii Rhizoma 1 g/kg) | Plasma collected 10 h postadministration (detection) ([1]; oral Cnidii Rhizoma 1 g/kg) | also measured
1 | CCCC=C1OC(=O)c2ccccc21 [3-Butylidenephthalide] | – | – | – | – | – | – | – | – | ++ (The number of + signs represent the sample number in which the ingredient was detected in the plasma after administration of each constituent crude drug of shimotsuto (n = 2 per sampling time per crude drug)) | Not detected | –
2 | COc1cc(O)c2c(=O)cc(C)oc2c1 [Eugenin] | – | – | – | – | – | – | – | – | ++ (The number of + signs represent the sample number in which the ingredient was detected in the plasma after administration of each constituent crude drug of shimotsuto (n = 2 per sampling time per crude drug)) | Not detected | –
3 | COc1c2ccoc2cc2oc(=O)ccc12 [Bergapten] | 0% | 3% | – | 0% | 0% | – | – | – | – | – | Plasma collected 1 h postadministration (detection) [1, 4]: + (The number of + signs represent the sample number in which the ingredient was detected in the plasma after administration of each constituent crude drug of shimotsuto (n = 2 per sampling time per crude drug)); Plasma collected 10 h postadministration (detection) [1, 4]: Not detected; AUC(0-t) ([2]; rat plasma, oral shimotsuto 1 g/kg, from mean concentration (n = 3) per time point, read-out: AUC0−last): 0.0105 ng·h/mL; Cmax ([2]; rat plasma, oral shimotsuto 1 g/kg, from mean concentration (n = 3) per time point, read-out: Cmax): 0.0837 ng/mL; Tmax ([2]; rat plasma, oral shimotsuto 1 g/kg, from mean concentration (n = 3) per time point, read-out: tmax): 15 min
4 | CC12CC3(O)OC(O1)C1(CO)C3CC21OC1OC(CO)C(O)C(O)C1O (stereo not shown) [8-Debenzoylpaeoniflorin] | 1% | 30% | slightly activated | 1% | 2% | 811 ng·h/mL | 466 ng/mL | 60 min | – | – | Plasma collected 1 h postadministration (detection) ([1]; oral Paeoniae Radix 1 g/kg): ++ (The number of + signs represent the sample number in which the ingredient was detected in the plasma after administration of each constituent crude drug of shimotsuto (n = 2 per sampling time per crude drug)); Plasma collected 10 h postadministration (detection) ([1]; oral Paeoniae Radix 1 g/kg): + (The number of + signs represent the sample number in which the ingredient was detected in the plasma after administration of each constituent crude drug of shimotsuto (n = 2 per sampling time per crude drug)); Cmax compared to paeoniflorin ([2]; rat): approximately tenfold
5 | O.Oc1cc(O)c2c(c1)O[C@H](c1ccc(O)c(O)c1)[C@@H](O)C2 [Catechin] | – | – | – | – | – | – | – | – | – | – | Plasma collected 1 h postadministration (detection) ([1]; oral Paeoniae Radix 1 g/kg): ++ (The number of + signs represent the sample number in which the ingredient was detected in the plasma after administration of each constituent crude drug of shimotsuto (n = 2 per sampling time per crude drug)); Plasma collected 10 h postadministration (detection) ([1]; oral Paeoniae Radix 1 g/kg): Not detected
6 | COc1cc(/C=C/COC(=O)/C=C/c2ccc(O)c(OC)c2)ccc1O [Coniferyl ferulate] | – | – | – | – | – | – | – | – | ++ (The number of + signs represent the sample number in which the ingredient was detected in the plasma after administration of each constituent crude drug of shimotsuto (n = 2 per sampling time per crude drug)) | + (The number of + signs represent the sample number in which the ingredient was detected in the plasma after administration of each constituent crude drug of shimotsuto (n = 2 per sampling time per crude drug)) | –
7 | CCCC[C@@H]1OC(=O)C2=C1CCC=C2 [Senkyunolide A] | 1% | 86% | potently activated | 0% | -1% | 8.04 ng·h/mL | 28.9 ng/mL | 15 min | – | – | EC50 (human TRPA1): 1000 nM; Pharmacological action related to improvement of blood and the circulatory system ([3]; ref 8): Vasorelaxation; Pharmacological action related to improvement of blood and the circulatory system ([3]; ref 13): vasorelaxation and increased blood flow effects

More lines, main results first:

Row | activation at 10 µM (human TRPV1) | activation at 10 µM (human TRPA1) | Activation of TRPA1 (in words) (human TRPA1) | activation at 10 µM (human TRPV4) | activation at 10 µM (human TRPM8) | AUC(0-t) ([2]; rat, po, 1 g/kg) | Cmax ([2]; rat, po, 1 g/kg) | Tmax ([2]; rat, po, 1 g/kg) | Structure (SMILES) | Plasma collected 1 h postadministration (detection) ([1]; oral Cnidii Rhizoma 1 g/kg) | Plasma collected 10 h postadministration (detection) ([1]; oral Cnidii Rhizoma 1 g/kg) | also measured
8 | -1% | 73% | potently activated | 0% | -1% | 4.12 ng·h/mL | 13.7 ng/mL | 30 min | CCCCC1OC(=O)c2ccccc21 (stereo not shown) [Butylphthalide] | – | – | EC50 (human TRPA1; dose–response test, Ca2+ influx, read-out: EC50 against TRPA1): 3200 nM; Pharmacological action related to improvement of blood and the circulatory system ([3]; ref 9): Vasodilation; Pharmacological action related to improvement of blood and the circulatory system ([3]; ref 13): vasorelaxation and increased blood flow effects
9 | 0% | 3% | – | 0% | 5% | 75 ng·h/mL | 12.4 ng/mL | 15 min | COc1cc(/C=C/C(=O)O)ccc1O [Ferulic acid] | – | – | Pharmacological action related to improvement of blood and the circulatory system ([3]; ref 14): Vasodilation effect [14]
